Data taken from PMC11770746 (Journal of Medicinal Chemistry, 2025).

Experiments:
mice [1] = assay type: in vivo; conditions: hot plate 54 ± 1 °C; compared with cisplatin, paclitaxel, or their 1:1 co-administration
Procedure: (§1) The sensitivity to noxious heat was assessed by placing the mice on a hot plate (54 ± 1 °C) and measuring the latency (s), the time until the mice began licking their paws, shaking, or jumping to avoid the heat.
(§2) Von Frey, hot plate, acetone evaporation, and ocular aperture ratio studies were carried out in Balb/c mice according to reported methods.[3] […] Final injection volume was 150 μL. Afterward, tests were carried out 1, 2, and 3 weeks post first injection.
Unrestrained mouse was placed on a metal surface that was maintained at a constant temperature (54 ± 1 °C) and the response latency, which is the time taken to observe a nocifensive behavior, was recorded. These behaviors include fore paw withdrawal or licking, hind paw withdrawal or licking, stamping, leaning posture, and jumping. each group contained six animals. If no nocifensive behaviors were observed, the animals were removed from the hot plate after 30 s to prevent tissue damage.

[2] = tested on: PC9 non-small-cell lung cancer cells; assay: Antiproliferative MTT assay, 72 h; assay type: cell-based, human; conditions: PC9, 72 h treatment
Procedure: (§4) After 72 h of exposure, the cell biomass was determined by 3-(4,5-dimethylthiazol-2-yl)-2,5-diphenyl tetrazolium bromide (MTT) (Sigma-Aldrich) staining, and the absorptions were calculated as the delta of two measurements of the same well at wavelengths 570 and 690 nm. IC50 values were determined as the concentration that caused 50% inhibition of cell proliferation compared to an untreated control. The results were calculated as the mean values of three independent experiments.
(§5) PC9 human non-small-cell lung carcinoma cells, A375 human malignant melanoma cells, and CT26 WT murine colon carcinoma cells were maintained in DMEM (high glucose, no glutamine/sodium pyruvate) supplemented with L-glutamine solution (4 mM) (2% v/v), 10% (v/v) heat-inactivated fetal bovine serum (South American origin, European grade), and 1% (v/v) penicillin–streptomycin solution (containing penicillin G sodium salt: 10 000 units/mL and streptomycin sulfate: 10 mg/mL) and were passaged twice a week.

A375 melanoma cells = assay: Antiproliferative MTT assay, 72 h; assay type: cell-based, human
Procedure: as §4, §5

[3] = Stability of the Pt(IV) compounds in RPMI medium, monitored by HPLC; assay type: physicochemical; conditions: pH = 7, 37 °C, HPLC peak area
Procedure: The stability of the Pt(IV) compounds was measured in RPMI medium, at pH = 7 and 37 °C, by monitoring the peak area of the prodrugs as a function of time.
Pt(IV) complexes were dissolved in 1% DMSO and RPMI medium at pH 7.4, and kept at 37 °C. Stability half-lives, t1/2, were calculated by linear fitting of ln(At/A0) vs time (t), where At and A0 are the integrated peak areas by HPLC […].

[4] = tested on: murine CT26 colon cancer model; assay: In vivo inhibition of tumor growth; conditions: CT26 s.c. in BALB/c mice, i.p. every other day up to 4 doses, equimolar: cisplatin 3, paclitaxel 8.5, combination 3 + 8.5, cisPt(Pac)(OH) and its micelles 12 mg/kg
[5] = Reduction by 10 equiv of ascorbic acid, monitored by HPLC; assay type: physicochemical; conditions: 10 eq. ascorbic acid, pH = 7, 37 °C
Procedure: To verify that the Pt(IV) prodrugs are activated by reduction, we incubated them with 10 eq. of ascorbic acid at pH = 7 at 37 °C and monitored by HPLC the reduction of the peak of the parent compound as a function of time.
The half-lives (t1/2) of all compounds were obtained after linear fitting of ln(At/A0) vs time (t) by considering a pseudo-first-order rate equation (At = A0e^–kt), where A0 and At are the integrated areas of HPLC peaks of the respective complexes at t = 0 and at time t, respectively, and k (slope) is the rate constant. Then, t1/2 was calculated by utilizing the equation t1/2 = 0.693/k.

[6] = tested on: CT26 murine colon cancer cells; assay: Antiproliferative MTT assay, 72 h; assay type: cell-based; conditions: CT26, 72 h treatment
Procedure: as §4, §5

[7] = tested on: A2780 ovarian carcinoma cells; assay: Antiproliferative MTT assay, 72 h; assay type: cell-based, human; conditions: A2780, 72 h treatment
Procedure: as §4, §5

mice [8] = assay: Ongoing pain, eye-closing ratio; assay type: in vivo; conditions: i.p. days 1, 3, 5
Procedure: Finally, we assessed whether the treatment with cisPt(OAc)2 or cisPt(Pac)(OH) prevents chemotherapy-induced ongoing pain, by assessing the eye-closing ratio.[53]−[55] The eye-closing ratio test was carried out prior to conducting the induced pain experiments. The eye-closing ratio was obtained by dividing the distance between the edges of the upper and lower eyelids by the length of the canthus (horizontal distance across the eye), where a value of 0 was given to completely closed eyes (indicating pain), and a value of 1 was given to fully open eyes (lack of pain).
as §2
The raw data for the ongoing pain was obtained by taking 3–5 photographs of each of the awake (not immobilized) mice and used such that the position of the eyelids in relation to the eye was clearly visible. The data were analyzed in a blind fashion by using the imaging software, ImageJ, to measure the length between the internal and external canthus (x) and the distance between the edge of the upper and lower eyelids (y). Finally, the ratio of y/x was calculated, and a value between 0 and 1 was obtained for each photo, where 0 is equivalent to the eye completely closed and 1 is equivalent to the eye completely open. The values obtained were an average of the values of the six animals in each group.

[9] = Platinum accumulation in the DRG by ICP-MS; assay type: in vivo, mice; conditions: day 7 after injections on days 1, 3, 5
Procedure: To explore whether the differences in the behavioral tests between cisplatin, cisplatin + paclitaxel, and cisPt(Pac)(OH) correlate with platinum accumulation in the DRG, we quantified the platinum in the DRG.
Afterward, on days 7–10, animals from each group were anesthetized using isoflurane and decapitated. Thereafter, DRG were removed and placed in DDW at room temperature.
(§3) Samples were weighed and mineralized with highly pure 70% nitric acid (Pt: ≤0.01 μg kg^–1, TraceSELECT Ultra, Sigma Chemical Co.) for 3 h. Afterward, solutions were completely dried at 110 °C and 1000 μL of 1% HNO3 was added. The platinum content of each sample was measured by ICP-MS. The calibration curve was obtained using known concentrations of standard solutions purchased from Sigma Chemical Co.

kidney = conditions: mouse, in vivo
Excerpt: At the end of the experiments, mice were euthanized, and the tumor, spleen, liver, and kidneys were isolated and analyzed in terms of platinum content by ICP-MS (Figure 4F).
All of the kidney (left kidney) samples were flash-frozen immediately after weighing for cryosections for the histopathological evaluation using H&E staining technique. The tissues were embedded in the OCT compound and 10 μm thick sections were cut and placed onto glass slides using the Leica CM3050 S Cryostat. The slides were dried in a desiccator for approximately 1 h before rinsing in water. Sections are ready for staining immediately after rinse. The slides were stained with H&E (Hematoxylin and eosin) using Leica Autostainer XL. Then, the slides were dehydrated through ascending series of ethanol to xylene before being coverslipped using Leica Coverslipper CV5030. The slides were imaged using the LABOMED Opti CX biological microscope. At least two sections of each kidney sample were stained and 5–10 images were taken for each section under 10× and 40× magnifications. The images were analyzed for histopathological changes by two pathologists in a blinded manner.

all cancer cell lines = assay: Antiproliferative MTT assay, summary over the panel; assay type: cell-based; conditions: all cancer cell lines of the panel, 72 h
Procedure: as §4

mice [10] = assay type: in vivo; conditions: acetone test; compared with cisplatin, paclitaxel, or their 1:1 co-administration
Procedure: as §1, §2
The test was carried out on a mesh floor, and acetone was dabbed on the plantar surface of the hind paw. Sensitivity to cold was recorded by the duration of nocifensive responses such as brisk withdrawal, flick of the paw, repeated flicking of the paw, repeated flicking of the hind paw, and licking of the paw. each group contained six animals.

[11] = Body weight changes in the CT26 efficacy study (general toxicity); assay type: in vivo, mice; conditions: i.p., equimolar doses
Procedure: Four-week-old female BALB/cAnNTac mice weighing 16–18 g were purchased from InVivos (Singapore). The animals were housed in Comparative Medicine (CM)-holding units at the National University of Singapore in a pathogen-free environment at constant temperature in a 12/12 h light/dark cycle environment. The mice were acclimatized for 3 days and given access to food and water ad libitum. The mouse colon carcinoma cells CT26 (1 × 10^5 cells in 100 μL of sterile PBS) were subcutaneously injected into the right flank of the mice. The administration of tested compounds was started when tumors became palpable (volume of ∼30 mm^3) on day 13. Subsequently, the animals were separated into 5 groups (n = 6 each) and injected i.p. with different compounds every other day up to 4 doses. Control mice were injected ip with 100 μL of sterile saline. The animals were controlled for pain and/or distress development, and the body weight and tumor size were closely monitored. […] The mice were euthanized when the diameter of the tumor reached 1.5 cm or upon development of ulceration.

[12] = tested on: A2780cisR cisplatin-resistant ovarian carcinoma cells; assay: Antiproliferative MTT assay, 72 h; assay type: cell-based, human; conditions: 72 h treatment
Procedure: as §4, §5

[13] = Platinum accumulation in organs and tumor by ICP-MS (CT26 study); assay type: in vivo, mice; conditions: ICP-MS at end of the CT26 experiment
Procedure: Four-week-old female BALB/cAnNTac mice weighing 16–18 g were purchased from InVivos (Singapore). The animals were housed in Comparative Medicine (CM)-holding units at the National University of Singapore in a pathogen-free environment at constant temperature in a 12/12 h light/dark cycle environment. The mice were acclimatized for 3 days and given access to food and water ad libitum. The mouse colon carcinoma cells CT26 (1 × 10^5 cells in 100 μL of sterile PBS) were subcutaneously injected into the right flank of the mice. The administration of tested compounds was started when tumors became palpable (volume of ∼30 mm^3) on day 13. Subsequently, the animals were separated into 5 groups (n = 6 each) and injected i.p. with different compounds every other day up to 4 doses. Control mice were injected ip with 100 μL of sterile saline. The animals were controlled for pain and/or distress development, and the body weight and tumor size were closely monitored. All animals were alert and responsive during the whole experiment. The mice were euthanized when the diameter of the tumor reached 1.5 cm or upon development of ulceration. The tumor and organs (liver, kidney, and spleen) were collected […].
as §3

mice [14] = assay: Mechanical allodynia, von Frey assay; conditions: for mechanical allodynia (in words): compared with the untreated mice
Procedure: as §2
8-week-old Balb/c mice were purchased from Envigo (Israel). Pain thresholds were assessed by observing withdrawal responses to mechanical stimulation of the plantar skin by using von Frey filaments. The mice were placed on a grid and allowed to accustom to the new environment for at least half an hour. The hind paw was touched vertically on the plantar surface with the tip of the filament. Once the fiber bends, the force applied is the maximum, making the repetitions reproducible. Hairs calibrated for forces between 0.008 and 2 g were applied 10 times each in ascending order of force at 5 s intervals to both hind paws. Sharp and quick leg withdrawal or immediate jumping in response to a touch with the hairs was considered as a withdrawal response. Paw movements associated with locomotion were not counted as the withdrawal response. The threshold of withdrawal response was defined when 6 out of 10 applications elicited pain responses. each group contained six animals.

Row | Compound | thermal hyperalgesia (mice [1]) | IC50 [2] | IC50 (A375 melanoma cells; A375, 72 h treatment) | t1/2 RPMI 1640 [3] | Inhibition of Tumor Growth (TGI) [4] | t1/2 10 equiv Asc [5] | IC50 [6] | IC50 [7] | ongoing (spontaneous) pain (mice [8]) | IC50 values (in words) (all cancer cell lines) | cold allodynia (mice [10]) | IC50 [12] | levels of Pt in the kidneys [13] | platinum levels in the tumor [13] | mechanical allodynia (in words) (mice [14]; von Frey) | also measured
1 | ctc-[Pt(NH3)2(Pac)(OH)Cl2] [cisPt(Pac)(OH)] | significantly reduced | 0.006 ± 0.001 µM | 0.018 ± 0.003 µM | 35 h | 65% | 0.16 h | 0.406 ± 0.106 µM | 0.0045 ± 0.002 µM | did not induce any ongoing pain | low nM | significantly reduced cold allodynia | 0.0059 ± 0.0001 µM | much lower levels | rather similar | – | platinum levels in the DRG [9]: lower than after treatment with cisplatin or the co-treatment with cisplatin and paclitaxel; kidney toxicity (creatinine and histopathology) (kidney): lower kidney toxicity; body weight loss compared to the control [11]: did not exhibit any substantial weight loss
2 | CC(=O)O[C@H]1C(=O)[C@@]2(C)[C@H]([C@H](OC(=O)c3ccccc3)[C@]3(O)C[C@H](OC(=O)[C@H](O)[C@@H](NC(=O)c4ccccc4)c4ccccc4)C(C)=C1C3(C)C)[C@]1(OC(C)=O)CO[C@@H]1C[C@@H]2O [paclitaxel] | – | – | – | – | 27% | – | – | – | substantial spontaneous pain | low nM | – | – | – | – | persistent reduction in the withdrawal threshold | IC50 ([2]; Homo sapiens): 0.0045 ± 0.002 µM; IC50 (A375 melanoma cells; Homo sapiens, A-375, A375, 72 h treatment): 0.014 ± 0.004 µM; IC50 ([6]; Mus musculus): 0.384 ± 0.109 µM; IC50 ([7]; Homo sapiens): 0.0022 ± 0.001 µM; IC50 ([12]; Homo sapiens): 0.003 ± 0.001 µM
3 | CC(=O)[O][Pt]([Cl])([Cl])[O]C(C)=O.N.N [cisPt(OAc)2] | significantly reduced | – | – | 120 h | – | 7.8 h | – | – | did not induce any ongoing pain | – | significantly reduced cold allodynia | – | – | – | – | –
4 | CC(=O)[O][Pt]1([O]C(C)=O)[O]C(=O)C(=O)[O]1.NC1CCCCC1N [Oxali(OAc)2] | – | – | – | 742 h | – | 63 h | – | – | – | – | – | – | – | – | – | neuropathic pain by withdrawal thresholds to mechanical stimuli (mice [14]; male and female mice, 5.19 mg/kg i.p. days 1, 3, 5): did not induce neuropathic pain
5 | N.N.[Cl][Pt][Cl] [cisplatin] | – | 5.29 ± 1.75 µM | 1.91 ± 0.62 µM | – | 41% | – | 5.89 ± 1.19 µM | 1.18 ± 0.13 µM | substantial spontaneous pain | low μM | – | 16.2 ± 3.14 µM | high levels of Pt | rather similar | persistent reduction in the withdrawal threshold | reduction of withdrawal threshold (mice [14]; von Frey, compared with untreated mice): about 95%; histopathological changes of the kidney tubules (kidney): focal tubular necrosis
